Like-named read-outs stand apart in the source and are kept apart here. One block for each compound: values may come before it.
Biological target: T1, Androgen Receptor (Homo sapiens, UniProt P10275)
T1 construct: endogenous in cells; host or cells: VCaP cells
T1 sequence (P10275 1-920): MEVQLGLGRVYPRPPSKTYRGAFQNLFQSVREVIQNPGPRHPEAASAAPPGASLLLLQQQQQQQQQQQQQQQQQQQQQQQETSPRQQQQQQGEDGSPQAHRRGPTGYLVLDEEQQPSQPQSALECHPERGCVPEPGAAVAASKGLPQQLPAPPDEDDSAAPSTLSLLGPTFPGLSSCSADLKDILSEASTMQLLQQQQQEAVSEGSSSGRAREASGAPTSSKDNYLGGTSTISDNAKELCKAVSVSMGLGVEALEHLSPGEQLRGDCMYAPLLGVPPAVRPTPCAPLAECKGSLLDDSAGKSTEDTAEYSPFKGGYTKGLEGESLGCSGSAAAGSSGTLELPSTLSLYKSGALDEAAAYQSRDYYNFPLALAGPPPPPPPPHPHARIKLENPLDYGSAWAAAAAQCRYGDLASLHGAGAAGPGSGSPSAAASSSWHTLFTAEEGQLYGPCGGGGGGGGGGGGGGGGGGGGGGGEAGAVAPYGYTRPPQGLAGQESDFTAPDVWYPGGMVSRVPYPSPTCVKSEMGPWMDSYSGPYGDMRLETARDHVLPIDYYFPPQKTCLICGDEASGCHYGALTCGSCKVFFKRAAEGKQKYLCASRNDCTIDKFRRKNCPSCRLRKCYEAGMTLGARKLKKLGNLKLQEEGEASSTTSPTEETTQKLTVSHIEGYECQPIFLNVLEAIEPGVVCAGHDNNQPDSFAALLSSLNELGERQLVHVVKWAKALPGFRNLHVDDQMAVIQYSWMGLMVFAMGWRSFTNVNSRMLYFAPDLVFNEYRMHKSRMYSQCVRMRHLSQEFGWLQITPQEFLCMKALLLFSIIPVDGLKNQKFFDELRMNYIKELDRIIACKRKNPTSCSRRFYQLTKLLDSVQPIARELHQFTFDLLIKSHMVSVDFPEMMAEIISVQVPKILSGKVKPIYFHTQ
Assay: Androgen Receptor ELISA assay (PathScan AR ELISA) in VCaP cells: AR degradation, Dmax and DC50
Assay type: cell-based
In short: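 VCaP cells in phenol red-free RPMI with 5% charcoal-stripped FBS were grown at least 3 days, then given compound as 7 half-log doses in 0.1% DMSO with 0.1 nM R1881 for 24 h. Lysates went into a sandwich AR ELISA with TMB read at 450 nm.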

[1] = VCaP cells; Table 36; read-out: VCaP DC50
[2] = VCaP, VCaP cells; Table 36; read-out: VCaP Dmax (%)
[3] = read-out: VCaP DC50; VCaP cells; Table 36
[4] = VCaP cells; Table 35; read-out: VCaP DC50
[5] = VCaP, VCaP cells; Table 35; read-out: VCaP Dmax (%)

Structure (SMILES): COc1cc(N2C(=O)C(C)(C)N(c3ccc(OCCOc4ccc(OCC(=O)N[C@H](C(=O)N5C[C@H](O)C[C@H]5C(=O)NCc5ccc(-c6scnc6C)cc5)C(C)(C)C)cc4)c(F)c3)C2=S)ccc1C#N [Example 323]
- DC50 (VCaP cells; Table 34; read-out: VCaP DC50): < 0.05 µM
- Dmax (VCaP, VCaP cells; Table 34; read-out: VCaP Dmax (%)): 51 to 70%

Structure (SMILES): Cc1ncsc1-c1ccc(CNC(=O)[C@@H]2C[C@@H](O)CN2C(=O)[C@@H](NC(=O)COCCCOCCCCOc2ccc(N3C(=S)N(c4cnc(C#N)c(C(F)(F)F)c4)C(=O)C3(C)C)cc2F)C(C)(C)C)cc1 [Example 48, (2S,4R)-1-[(2S)-2-(2-{3-[4-(4-{3-[6-cyano-5-(ttifluoromethyl)pyridin-3-yl]-5,5-dimethyl-4-oxo-2-sulfanylideneimidazolidin-1-yl}-2-fluorophenoxy)butoxy]propoxy}acetamido)-3,3-dimethylbutanoyl]-4-hydroxy-N-{[4-(4-methyl-1,3-thiazol-5-yl)phenyl]methyl}pyrrolidine-2-carboxamide]
- Dmax (VCaP, highest percentage of Androgen Receptor degradation observed, VCaP cells; read-out: VCaP Dmax (%)): 51 to 70%
- DC50 (concentration that caused 50% Androgen Receptor degradation, VCaP cells; read-out: VCaP DC50): < 0.05 µM

Structure (SMILES): Cc1ncsc1-c1ccc(CNC(=O)[C@@H]2C[C@@H](O)CN2C(=O)[C@H](C(C)C)n2cc(OC3CCN(c4ccc(-c5ccc(N6C(=S)N(c7ccc(C#N)c(C(F)(F)F)c7)C(=O)C6(C)C)cc5)cn4)CC3)cn2)cc1 [Example 598, 1-(2-(4-((1-(5-(4-(3-(4-cyano-3-(trifluoromethyl)phenyl)-5,5-dimethyl-4-oxo-2-thioxoimidazolidin-1-yl)phenyl)pyridin-2-yl)piperidin-4-yl)oxy)-1H-pyrazol-1-yl)-3-mehtylbutanoyl)-4-hydroxy-N-(4-(4-methylthiazol-5-yl)benzyl)pyrrolidine-2-carboxamide]
- Dmax (VCaP, read-out: VCaP Dmax (%)): 26 to 50%
- DC50 [3]: > 0.501 µM

Structure (SMILES): Cc1ncoc1C12CC(CNC(=O)[C@@H]3C[C@@H](O)CN3C(=O)C(NC(=O)COCCCOCCCOc3ccc(N4C(=O)N(c5ccc(C#N)c(C(F)(F)F)c5)C(=O)C4(C)C)cc3)C(C)(C)C)(C1)C2 (stereo partly drawn) [Example 633, (2S,4)R-1-((S)-2-(2-(3-((5-(4-(3-(4-cyano-3-(trifluoromethyl)phenyl)-5,5-dimethyl-4-oxo-2-thioxoimidazolidin-1-yl)phenoxy)pentyl)oxy)propoxy)acetamido)-3,3-dimethylbutanoyl)-4-hydroxy-N-((3-(4-methyloxazol-5-yl)bicyclo[1,.1.1]pentan-1-yl)methyl)pyrrolidine-2-carboxamide]
- Dmax (VCaP, read-out: VCaP Dmax (%)): < 25%
- DC50 [3]: > 0.501 µM

Structure (SMILES): Cc1ncsc1-c1ccc([C@H](C)NC(=O)[C@@H]2C[C@@H](O)CN2C(=O)[C@@H](C(C)C)n2cc(OCCCOCCCn3cnc(-c4ccc(N5C(=S)N(c6ccc(C#N)c(C(F)(F)F)c6)C(=O)C5(C)C)cc4)c3)cn2)cc1 [Example 647, (2S,4R)-1-((R)-2-(4-(3-(3-(4-(4-(3-(4-cyano-3-(trifluoromethyl)phenyl)-5,5-dimethyl-4-oxo-2-thhioxoimidazolidin-1-yl)phenyl)-1H-imidazol-1-yl)propoxy)propoxy)-1H-pyrazol-1-yl)-3-methylbutanoyl)-4-hydroxy-N-((S)-1-(4-(4-methylthiazol-5-yl)phenyl)ethyl)pyrrolidine-2-carboxamide]
- Dmax (VCaP, read-out: VCaP Dmax (%)): < 25%
- DC50 [3]: > 0.501 µM

Structure (SMILES): Cc1ncsc1-c1ccc([C@H](NC(=O)[C@@H]2C[C@@H](O)CN2C(=O)[C@@H](NC(=O)CN2CCN(CCCc3ccc(C(=O)N[C@H]4C(C)(C)[C@H](Oc5ccc(C#N)c(C(F)(F)F)c5)C4(C)C)cc3)CC2)C(C)(C)C)C2COC2)cc1 [Example 712, (2S,4R)-1-((S)-2-(2-(4-(3-(4-(((1r,3r)-3-(4-cyano-3-(trifluoromethyl)phenoxy)-2,2,4,4-tetramethylcyclobutyl)carbamoyl)phenyl)propy)piperazin-1-yl)acetamido)-3,3-dimethylbutanoyl)-4-hydroxy-N-((R)-(4-(4-methylthiazol-5-yl)phenyl)(oxetan-3-yl)methyl)pyrrolidine-2-carboxamide]
- DC50 [1]: > 0.501 µM
- Dmax (VCaP, read-out: VCaP Dmax (%)): < 25%

Structure (SMILES): Cc1ncsc1-c1ccc(CNC(=O)[C@@H]2C[C@@H](O)CN2C(=O)[C@@H](NC(=O)COCC#CCOCCOc2ccc(N3C(=S)N(c4ccc(C#N)c(C(F)(F)F)c4)C(=O)C3(C)C)cc2)C(C)(C)C)cc1 [Example 319]
- Dmax (VCaP, read-out: VCaP Dmax (%)): 26 to 50%
- DC50 (read-out: VCaP DC50; VCaP cells; Table 34): < 0.05 µM

Now from value to compound:

- DC50 [1]: > 0.501 µM
- Dmax [2]: < 25%
Structure (SMILES): Cc1ncsc1-c1ccc([C@H](C)NC(=O)[C@@H]2C[C@@H](O)CN2C(=O)[C@@H](NC(=O)CCCc2ccc(C(=O)N[C@H]3C(C)(C)[C@H](Oc4ccc(C#N)c(Cl)c4)C3(C)C)cc2)C(C)(C)C)cc1 [Example 747, (2S,4R)-1-((S)-2-(4-(4-(((1r,3S)-3-(3-chloro-4-cyanophenoxy)-2,2,4,4-tetramethylcyclobutyl)carbamoyl)phenyl)butan-amido)-3,3-dimethylbutanoyl)-4-hydroxy-N-((S)-1-(4-(4-methylthiazol-5-yl)phenyl)ethyl)pyrrolidine-2-carboxamide]

- DC50 [1]: < 0.05 µM
- Dmax [2]: > 71%
Structure (SMILES): Cc1ncsc1-c1ccc([C@H](C)NC(=O)C2C[C@@H](O)CN2C(=O)[C@@H](NC(=O)COCCN2CCCN(c3ccc(C(=O)N[C@H]4C(C)(C)[C@H](Oc5ccc(C#N)c(Cl)c5)C4(C)C)cn3)CC2)C(C)(C)C)cc1 (stereo partly drawn) [Example 782, N-((1r,3r)-3-(3-chloro-4-cyanophenoxy)-2,2,4,4-tetramethylcyclobutyl)-6-(4-(2-(2-(((S)-1-((2S,4R)-4-hydroxy-2-(((S)-1-(4-(4-methylthiazol-5-yl)phenyl)ethyl)carbamoyl)pyrrolidin-1-yl)-3,3-dimethyl-1-oxobutan-2-yl)amino)-2-oxoethoxy)ethyl)-1,4-diazepan-1-yl)nicotinamide]

- DC50 [1]: > 0.501 µM
- Dmax [2]: < 25%
Structure (SMILES): CC(C)[C@H](C(=O)N1C[C@H](O)C[C@H]1C(=O)NCc1ccc(Cl)cc1)N1Cc2ccc(N3CCN(CCCc4ccc(C(=O)N[C@H]5C(C)(C)[C@H](Oc6ccc(C#N)c(C(F)(F)F)c6)C5(C)C)cc4)CC3)cc2C1=O [Example 769, (2S,4R)-N-(4-chlorobenzyl)-1-((R)-2-(6-(4-(3-(4-(((1r,3r)-3-(4-cyano-3-(trifluoromethyl)phenoxy)-2,2,4,4-tetramethylcyclobutyl)carbamoyl)phenyl)propyl)piperaizn-1-yl)-1-oxoisoindolin-2-yl)-3-methylbutanoyl)-4-hydroxypyrrolidine-2-carboxamide]

- DC50 [4]: < 0.05 µM
- Dmax [5]: > 71%
Structure (SMILES): Cc1ncsc1-c1ccc([C@H](C)NC(=O)[C@@H]2C[C@@H](O)CN2C(=O)[C@@H](NC(=O)COCCC2CCN(c3ccc(C(=O)N[C@H]4C(C)(C)[C@H](Oc5ccc(C#N)c(Cl)c5)C4(C)C)cc3)CC2)C(C)(C)C)cc1 [Example 456]

- DC50 [4]: > 0.501 µM
Structure (SMILES): Cc1ncsc1-c1ccc([C@H](C)NC(=O)[C@@H]2C[C@@H](O)CN2C(=O)[C@H](C(C)C)n2cc(OCC3CCN(c4ccc(C(=O)N[C@H]5C(C)(C)[C@H](Oc6ccc(C#N)c(Cl)c6)C5(C)C)cc4)CC3)cn2)cc1 [Example 437]

- DC50 [4]: < 0.05 µM
- Dmax [5]: 51 to 70%
Structure (SMILES): CC(C)(C)[C@H](NC(=O)COCCCCCNc1ccc(C(=O)N[C@H]2C(C)(C)[C@H](Oc3ccc(C#N)c(Cl)c3)C2(C)C)cc1)C(=O)N1C[C@H](O)C[C@H]1C(=O)NCc1ccc(-c2ncns2)cc1 [Example 504]
